Laboratory results reported in patent EP1505089B1, “Cationic (alkyl)acrylamide derivative, polymer based on these derivates, and transfection system comprising said polymer” (OctoPlus Technologies B.V., priority 2003, dated 2005).

Experiment: Degradation of the monomer followed with RP-HPLC
Assay type: physicochemical
Details: 37 °C
Procedure: Degradation of the monomer was followed with RP-HPLC at 37 °C. The relative peak areas of the monomer and its degradation product HPMA as a function of time are depicted in figure 1(A) for pH 10, 1(B) for pH 7.4 and 1(C) for pH 5.0.

Which “half-life of the monomer” value (pH 5.0, RP-HPLC) does the source give for `C=C(C)C(=O)NCC(C)OC(=O)OCCN(C)C` (stereo not drawn) [HPMA-DMAE] here?
Its value is 380 h.

What about the “half-life of the monomer” value (pH 7.4, RP-HPLC) of the same molecule?
Its value is 9.6 h.

And the “half-life of the monomer” value (pH 10, RP-HPLC)?
The value was 1.1 h.
